Assay results: patent EP0536402A1, “PIPERIDINE DERIVATIVE” (NIPPON SHINYAKU COMPANY, LIMITED, priority 1990, dated 1992)
Counter-ions that a name gives are not always drawn.

These compounds were tested against β -galactosidase (assay: β-galactosidase inhibitory activity (colorimetric, O-nitrophenyl-β-D-galactopyranose substrate)). Conditions: Test Example 1; acetate buffer pH 5.0, 37°C, 15 minutes.
Format: biochemical, Aspergillus sp.
Experimental: The assay of this activity was carried out by permitting β -galactosidase to act on the substrate O-nitrophenyl-β -D-galactopyranose and quantitating O-nitrophenol, which was released on hydrolysis, colorimetrically. Thus, a mixture of 0.9 ml of 100 mM acetate buffer (pH 5.0), 0.1 ml of a solution of the test substance (dissolved in 100 mM acetate buffer at pH 5.0) and 0.5 ml of a 20 mM substrate solution was previously warmed at 37°C for […] and, then, dissolved in 10 mM acetate buffer at pH 5.0. Then, 0.5 ml of a solution of β -galactosidase was added and the reaction was conducted at 37°C for 15 minutes. The absorbance (A) at 420 nm was then measured. The absorbance (B) of a reaction mixture not containing the test substance was also measured and using the equation of % inhibition = (B - A)/B x 100 [formula] , the concentration of the test substance causing 50% inhibition of β -galactosidase activity (IC₅₀) was determined. The β -galactosidase derived from Aspergillus sp. was used. It is clear that the compound of the present invention has high β -galactosidase inhibitory activity.

First: CCN1C[C@H](O)[C@@H](O)[C@@H](O)[C@H]1CO [Example 2, N-ethyl-1-deoxygalactostatin]
Second: CCCN1C[C@H](O)[C@@H](O)[C@@H](O)[C@H]1CO [Example 3, N-n-propyl-1-deoxygalactostatin]
The IC₅₀ of the first is 1.9-fold higher: 82 ng/mL for the first, 44 ng/mL for the second.

Going from `OC[C@@H]1[C@H](O)[C@H](O)[C@@H](O)CN1Cc1ccc(Cl)cc1` [Example 8, N-p-chlorobenzyl-1-deoxygalactostatin] to `OC[C@@H]1[C@H](O)[C@H](O)[C@@H](O)CN1CCCc1ccccc1` [Example 7, N-(3-phenylpropyl)-1-deoxygalactostatin], the IC₅₀ falls from 180 ng/mL to 88 ng/mL (2-fold).

Compared with `CC(C)CN1C[C@H](O)[C@@H](O)[C@@H](O)[C@H]1CO` [Example 4, N-isobutyl-1-deoxygalactostatin], `C=CCN1C[C@H](O)[C@@H](O)[C@@H](O)[C@H]1CO` [Example 9, N-allyl-1-deoxygalactostatin] is 4.7-fold higher in IC₅₀: 40 ng/mL for the first, 187 ng/mL for the second.

Going from `OC[C@@H]1[C@H](O)[C@H](O)[C@@H](O)CN1CC=Cc1ccccc1` [Example 10, N-cinnamyl-1-deoxygalactostatin] to `CN1C[C@H](O)[C@@H](O)[C@@H](O)[C@H]1CO` [Example 1, N-methyl-1-deoxygalactostatin], the IC₅₀ falls from 175 ng/mL to 15 ng/mL (12-fold).

First: OC[C@H]1NC[C@H](O)[C@@H](O)[C@H]1O [1-deoxygalactostatin hydrochloride, reference compound]
Second: CCCCCCCN1C[C@H](O)[C@@H](O)[C@@H](O)[C@H]1CO [Example 5, N-n-heptyl-1-deoxygalacto-statin]
The IC₅₀ of the first is 14-fold higher: 451 ng/mL for the first, 32 ng/mL for the second.

Work on `CCCCCCCCCCCCN1C[C@H](O)[C@@H](O)[C@@H](O)[C@H]1CO` [Example 6, N-n-dodecyl-1-deoxygalactostatin] yielded an IC₅₀ of 23 ng/mL.

Same assay, conditions: Test Example 2; acetate buffer pH 5.0, 37°C, 15 minutes

Going from `OC[C@@H](O)[C@H](O)[C@H](O)[C@@H](O)CN1C[C@H](O)[C@@H](O)[C@@H](O)[C@H]1CO` [Example 17, N-(1'-deoxygalactitoyl)-1-deoxygalactostatin] to `O=C(O)CCCN1C[C@H](O)[C@@H](O)[C@@H](O)[C@H]1CO` [Example 24, N-(3-carboxypropyl)-1-deoxygalactostatin], the IC₅₀ rises from 49 ng/mL to 351 ng/mL (7.2-fold).

`CC(=O)Nc1ccc(CN2C[C@H](O)[C@@H](O)[C@@H](O)[C@H]2CO)cc1` [Example 18, N-(p-acetamidobenzyl)-1-deoxygalactostatin] and `CSc1ccc(CN2C[C@H](O)[C@@H](O)[C@@H](O)[C@H]2CO)cc1` [Example 15, N-p-methylthiobenzyl-1-deoxygalactostatin] are within 1.5-fold of each other in IC₅₀: 340 ng/mL for the first, 393 ng/mL for the second.

Compared with `OC[C@@H]1[C@H](O)[C@H](O)[C@@H](O)CN1Cc1ccc(-c2ccccc2)cc1` [Example 12, N-(p-phenylbenzyl)-1-deoxygalactostatin], `COc1ccc(CN2C[C@H](O)[C@@H](O)[C@@H](O)[C@H]2CO)cc1` [Example 14, N-p-methoxybenzyl-1-deoxygalactostatin] is 2.4-fold higher in IC₅₀: 166 ng/mL for the first, 391 ng/mL for the second.

First: OC[C@@H]1[C@H](O)[C@H](O)[C@@H](O)CN1CC1CCCCC1 [Example 20, N-cyclohexylmethyl-1-deoxygalactostatin]
Second: COCCN1C[C@H](O)[C@@H](O)[C@@H](O)[C@H]1CO [Example 11, N-methoxyethyl-1-deoxygalactostatin]
The IC₅₀ of the first is 1.6-fold lower: 37 ng/mL for the first, 59 ng/mL for the second.

Going from `COc1ccc(CN2C[C@H](O)[C@@H](O)[C@@H](O)[C@H]2CO)cc1C` [Example 22, N-(3'-methyl-4'-methoxybenzyl)-1-deoxygalactostatin] to `OC[C@@H]1[C@H](O)[C@H](O)[C@@H](O)CN1CCc1ccccc1` [Example 16, N-phenylethyl-1-deoxygalactostatin], the IC₅₀ falls from 359 ng/mL to 21 ng/mL (17-fold).

Going from `OC[C@H]1NC[C@H](O)[C@@H](O)[C@H]1O` [1-deoxygalactostatin hydrochloride, reference compound] to `CCCCN1C[C@H](O)[C@@H](O)[C@@H](O)[C@H]1CO` [Example 23, N-n-butyl-1-deoxygalactostatin], the IC₅₀ falls from 440 ng/mL to 154 ng/mL (2.9-fold).

First: CSCCCN1C[C@H](O)[C@@H](O)[C@@H](O)[C@H]1CO [Example 21, N-(3'-methylthiopropyl)-1-deoxygalactostatin]
Second: CCCCCN1C[C@H](O)[C@@H](O)[C@@H](O)[C@H]1CO [Example 13, N-n-pentylnyl-1-deoxygalactostatin]
The IC₅₀ of the first is 2.3-fold lower: 49 ng/mL for the first, 113 ng/mL for the second.
